Like-named read-outs stand apart in the source and are kept apart here.
How the values were obtained:
[1] = Summary of the method: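 LCO probes (3 μM) were added to serial two-fold dilutions of carbohydrate suspensions in dH2O, with excitation scanned 300–500 nm and emission at 545 nm. Detection was a reproducible λmax and/or RFU change versus no-carbohydrate control. RFU was regressed linearly against concentration at the λmax or the lowest-background excitation.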
[2] = remark: listed apart in the source
Summary of the method: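 3 μM of each LCO probe was added to serial two-fold carbohydrate dilutions in water (10–0.039 or 5–0.019 mg/ml). Excitation spectra were scanned 300–500 nm with emission at 545 nm, in triplicate. Detection was defined as a reproducible shift in λmax and/or RFU versus negative control, with linear regression of RFU against concentration.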

[3] = remark: listed apart in the source
Summary of the method: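 LCO probes at 3 μM mixed with serial two-fold carbohydrate dilutions in water (10–0.039 or 5–0.019 mg/ml), run in triplicate. Excitation scanned 300–500 nm with emission at 545 nm; detection based on reproducible λmax or RFU shift against the no-carbohydrate control, with linear regression of RFU on concentration.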

[4] = for RFU change (Correlation analysis): probe-specific excitation λ, emission 545 nm; for Gradient Parameters (gradient of regression line) / Linear relationship / Quality of Gradient: linear regression
Summary of the method: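 LCO probes at 3 μM mixed with serial twofold carbohydrate dilutions in dH2O (10–0.039 or 5–0.019 mg/ml, depending on carbohydrate). Excitation scanned 300–500 nm, emission read at 545 nm; detection defined as reproducible shift in λmax and/or RFU relative to negative control, with linear regression of RFU against concentration.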

[5] = for RFU change (Correlation analysis): probe-specific excitation λ, emission 545 nm
Summary of the method: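 LCO probes at 3 μM mixed with serial two-fold dilutions of carbohydrate in dH2O (10–0.039 or 5–0.019 mg/ml, depending on carbohydrate), in triplicate. Excitation scanned 300–500 nm or fixed per probe (λmax or lowest background), emission at 545 nm. Detection taken as reproducible λmax/RFU shift vs no-carbohydrate control; RFU regressed linearly on concentration.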

[6] = for RFU change (Correlation analysis) / RFU change (Signal deviation with increasing [Carbohydrate]) / λmax change: 3 μM probe; for RFU change (Correlation analysis): probe-specific excitation λ, emission 545 nm; for RFU change (Signal deviation with increasing [Carbohydrate]) / λmax change: spectral analysis, Excitation 300-500, Emission 545; for carbohydrate can be detected and/or differentiated by the LCO: conclusion from change in signal magnitude and/or shift in λmax; for Gradient Parameters (gradient of regression line) / Linear relationship / Quality of Gradient: linear regression
Summary of the method: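 Each LCO probe at 3 μM was added to two-fold serial dilutions of carbohydrate in dH2O (10–0.039 mg/ml for β-1,3-glucan, cellulose, chitin; 5–0.019 mg/ml for the others), run in triplicate. Excitation spectra were scanned 300–500 nm with emission at 545 nm. Detection was a reproducible λmax and/or RFU shift versus negative control, with linear regression of RFU against concentration.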

[7] = sodium alginate concentration vs RFU, linear regression
[8] = Chondroitin Sulfate A 5-0.019 mg/ml, 3 μM probe, spectral analysis, Excitation 300-500, Emission 545
[9] = Chondroitin Sulfate A concentration vs RFU, linear regression
[10] = glucose concentration vs RFU, linear regression
[11] = Glycogen 5-0.019 mg/ml, 3 μM probe, spectral analysis, Excitation 300-500, Emission 545
[12] = Cellulobiose 5-0.019 mg/ml, 3 μM probe, spectral analysis, Excitation 300-500, Emission 545
[13] = amylose concentration vs RFU, linear regression
[14] = cellulobiose concentration vs RFU, linear regression
[15] = β-1,3-glucan concentration vs RFU

SMILES: Cl.Cl.O=C(Cc1cc(-c2cccs2)sc1-c1ccc(-c2sc(-c3cccs3)cc2CC(=O)NCCc2c[nH]cn2)s1)NCCc1c[nH]cn1 [pHTA-His, penta Hydrogen Thiophene Acetic acid Histidine]
- RFU change (Correlation analysis) ([1]; Sodium alginate 5-0.019 mg/ml, 3 μM probe, probe-specific excitation λ, emission 545 nm): Increases
- RFU change (Signal deviation with increasing [Carbohydrate]) ([1]; Sodium alginate 5-0.019 mg/ml, 3 μM probe, spectral analysis, Excitation 300-500, Emission 545): Increases
- carbohydrate can be detected and/or differentiated by the LCO ([1]; Sodium alginate, conclusion from change in signal magnitude and/or shift in λmax): can be detected and/or differentiated
- Gradient Parameters (gradient of regression line) [1, 7]: 199.9 ± 36.3
- Linear relationship [1, 7]: Significant
- Quality of Gradient [1, 7]: Positive
- Sensitivity ([1]; to sodium alginate): Yes
- RFU change (Correlation analysis) ([2]; Chondroitin Sulfate A 5-0.019 mg/ml, 3 μM probe, probe-specific excitation λ, emission 545 nm): Increases
- RFU change (Signal deviation with increasing [Carbohydrate]) [2, 8]: Increases
- λmax change [2, 8]: Blueshift
- Gradient Parameters (gradient of regression line) [2, 9]: 163.8 ± 20.77
- Linear relationship [2, 9]: Significant
- Quality of Gradient [2, 9]: Positive
- carbohydrate can be detected and/or differentiated by the LCO ([2]; Chondroitin sulfate A, conclusion from change in signal magnitude and/or shift in λmax): can be detected and/or differentiated
- Sensitivity ([2]; to Chondroitin Sulfate A): Yes
- RFU change (Correlation analysis) ([3]; Glucose 5-0.019 mg/ml, 3 μM probe, probe-specific excitation λ, emission 545 nm): Unclear
- RFU change (Signal deviation with increasing [Carbohydrate]) ([3]; Glucose 5-0.019 mg/ml, 3 μM probe, spectral analysis, Excitation 300-500, Emission 545): Increases
- Gradient Parameters (gradient of regression line) [3, 10]: 33.2 ± 25.2
- Quality of Gradient [3, 10]: Horizontal
- Sensitivity ([3]; to glucose): No
- RFU change (Correlation analysis) ([4]; Glycogen 5-0.019 mg/ml, 3 μM probe): Increases
- RFU change (Signal deviation with increasing [Carbohydrate]) [4, 11]: Increases
- λmax change [4, 11]: Redshift
- carbohydrate can be detected and/or differentiated by the LCO ([4]; Glycogen, conclusion from change in signal magnitude and/or shift in λmax): can be detected and/or differentiated
- RFU change (Correlation analysis) ([4]; Heparin 5-0.019 mg/ml, 3 μM probe): Unclear
- RFU change (Signal deviation with increasing [Carbohydrate]) ([4]; Heparin 5-0.019 mg/ml, 3 μM probe, spectral analysis, Excitation 300-500, Emission 545): Decreases
- Gradient Parameters (gradient of regression line) ([4]; glycogen concentration vs RFU): 130.6 ± 55.6
- Linear relationship ([4]; glycogen concentration vs RFU): Significant
- Quality of Gradient ([4]; glycogen concentration vs RFU): Positive
- Gradient Parameters (gradient of regression line) ([4]; heparin concentration vs RFU): 26.3 ± 18.5
- Linear relationship ([4]; heparin concentration vs RFU): Not Significant
- Quality of Gradient ([4]; heparin concentration vs RFU): Horizontal
- Sensitivity ([4]; to glycogen): Yes
- Sensitivity ([4]; to heparin): No
- RFU change (Correlation analysis) ([5]; Amylose 5-0.019 mg/ml, 3 μM probe): Decreases
- RFU change (Signal deviation with increasing [Carbohydrate]) ([5]; Amylose 5-0.019 mg/ml, 3 μM probe, spectral analysis, Excitation 300-500, Emission 545): Decreases
- carbohydrate can be detected and/or differentiated by the LCO ([5]; Amylose, conclusion from change in signal magnitude and/or shift in λmax): can be detected and/or differentiated
- RFU change (Correlation analysis) ([5]; Cellulobiose 5-0.019 mg/ml, 3 μM probe): Unclear
- RFU change (Signal deviation with increasing [Carbohydrate]) [5, 12]: Unclear
- λmax change [5, 12]: No change
- Gradient Parameters (gradient of regression line) [5, 13]: −341.5 ± 47.3
- Linear relationship [5, 13]: Significant
- Quality of Gradient [5, 13]: Negative
- Gradient Parameters (gradient of regression line) [5, 14]: −5.26 ± 4.87
- Quality of Gradient [5, 14]: Horizontal
- Sensitivity ([5]; to amylose): Yes
- Sensitivity ([5]; to cellulobiose): No
- RFU change (Correlation analysis) ([6]; Cellulose 10-[…]): Increase
- RFU change (Signal deviation with increasing [Carbohydrate]) ([6]; Cellulose 10-[…]): Increase
- λmax change ([6]; Cellulose 10-[…]): Redshift
- carbohydrate can be detected and/or differentiated by the LCO ([6]; Cellulose): can be detected and/or differentiated
- RFU change (Correlation analysis) ([6]; Chitin 10-[…]): Increases
- RFU change (Signal deviation with increasing [Carbohydrate]) ([6]; Chitin 10-[…]): Increases
- λmax change ([6]; Chitin 10-[…]): Redshift
- carbohydrate can be detected and/or differentiated by the LCO ([6]; Chitin): can be detected and/or differentiated
- Gradient Parameters (gradient of regression line) ([6]; cellulose concentration vs RFU): 725.9 ± 124.6
- Linear relationship ([6]; cellulose concentration vs RFU): Significant
- Quality of Gradient ([6]; cellulose concentration vs RFU): Positive
- Gradient Parameters (gradient of regression line) ([6]; chitin concentration vs RFU): 117.2 ± 25.7
- Linear relationship ([6]; chitin concentration vs RFU): Significant
- Quality of Gradient ([6]; chitin concentration vs RFU): Positive
- Sensitivity ([6]; to cellulose): Yes
- Sensitivity ([6]; to chitin): Yes
- Sensitivity ([6]; to β-1,3-glucan): No
- RFU change (Correlation analysis) ([6]; β-1,3-glucan 10-[…]): Unclear
- RFU change (Signal deviation with increasing [Carbohydrate]) ([6]; β-1,3-glucan 10-[…]): Unclear
- Gradient Parameters (gradient of regression line) [6, 15]: −7.071 ± 34
- Quality of Gradient [6, 15]: Horizontal
